PubChem BioAssay AID1919017 (Molecular Pharmacology Branch, DTP, NCI, 2023)
pIC50: −log10 of the molar value.

Test system: SW1271 complex spheroids with HUVEC/MSC, growth, % test/control
Experiment: Anticancer human tumor SW1271 cell line growth inhibition [AhR];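 also: spheroids exposed to agents for 7 days before readout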
Conditions: for pIC50: curve of first compound; for viability, T/C: stronger effect = lower value
From the text: Multicellular complex tumor spheroid response to aryl hydrocarbon receptor antagonists in combination with a variety of drugs and investigational agents in selected tumor cell lines
The current study was undertaken to assess response to aryl hydrocarbon receptor antagonists in combination with standard-of-care drugs and investigational agents in solid tumor complex spheroid models. Complex spheroids include a stromal component modeled by human endothelial cells (HUVEC) and fibroblasts modeled by human mesenchymal stem cells (MSCs). The concentration ranges selected for each drug and investigational agent were based upon clinically achievable concentrations if the clinical Cmax of the agent was known.
Compounds. The drugs and investigational agents: BAY 2416964 (NSC825713), GNF351 (NSC835774), CH-223191 (NSC835775), CPI-455 (NSC825282), aza-TdCyd (NSC777586), decitabine (NSC127716), belinostat (NSC758774), entinostat (NSC756642), pevonedistat (NSC761192), tazemetostat (NSC777109), talazoparib (NSC765396), olaparib (NSC753686), selinexor (NSC780203), nedisertib (M3814, NSC802822), bortezomib (NSC756655), venetoclax (NSC766270), doxorubicin (NSC123127), elimusertib (BAY189344, NSC800525), ceralasertib (AZD6738, NSC777638), TAK-243 (NSC785004), alisertib (NSC759677), etoposide (NSC141540), topotecan (NSC609699), eribulin (NSC707389), gemcitabine (NSC613327), carboplatin (NSC241240), cisplatin (NSC119875), and SN-38 (NSC673596) were obtained from the National Cancer Institute (NCI) Developmental Therapeutics Program Chemical Repository (32). The FDA-approved anticancer drug set is available from the Developmental Therapeutics Program at https://dtp.cancer.gov/organization/dscb/obtaining/available plates.htm. […] The stock solutions were prepared in dimethyl sulfoxide (DMSO, Sigma-Aldrich, St. Louis, MO, cat. D2650), except for the platinum compounds which were prepared in saline (Quality Biological, Gaithersburg, MD, cat. 114-055-101), at 800-fold the tested concentration and stored at -70 degrees C prior to their use. All drugs and investigational agents were tested over a range starting from a high concentration at or near the clinical Cmax and decreasing in half-log increments. If the clinical Cmax for an agent had not been determined, the highest concentration tested was 10 microM (Table 1).
Cell Culture. All cells were maintained in an incubator at 37 degrees C and 5% CO2 with 95% humidity. The PDC lines were cultured according to standard operating procedures established by the NCI PDMR (https://pdmr.cancer.gov). Briefly, all PDCs were thawed and cultured in Matrigel-coated flasks prepared with a working solution of 1X Ham's F-12 nutrient mix, without supplementation (Invitrogen, Waltham, MA, cat. 11765054), 100 U/mL penicillin-streptomycin (Invitrogen, cat. 15140122), and 2.5% Matrigel (Corning Inc., Corning, NY, cat. 354248) for the first three passages. All PDCs were cultured in complete DMEM/F-12 media containing advanced DMEM/F-12 (Invitrogen, cat. 12634028), 4.9% defined fetal bovine serum, heat inactivated (HyClone Laboratories Inc., Logan, UT, cat. SH30070.03HI), 389 ng/mL hydrocortisone (Sigma-Aldrich, cat. H4001), 9.7 ng/mL human EGF recombinant protein (Invitrogen, cat. PHG0313), 23.4 microg/mL adenine (Sigma-Aldrich, cat. A2786), 97.3 U/mL penicillin-streptomycin (Invitrogen, cat. 15140122), 1.9 mM L-glutamine (Invitrogen, cat. 25030081), and 9.7 microM Y-27632 dihydrochloride (Tocris Bioscience, Bristol, United Kingdom, cat. 1254). The PDCs were cultured in complete DMEM/F12 media without 10 microM Y-27632 dihydrochloride for at least two passages prior to the screen. The established cell lines NCI-H1341 and […] were cultured in DMEM/F-12, HEPES (Invitrogen, cat. 11330032), 5% defined fetal bovine serum (HyClone Laboratories Inc., cat. SH30070.03), ITS premix universal culture supplement [insulin (5 microg/mL), transferrin (5 microg/mL), and selenious acid (5 ng/mL)] […]

[1] = second compound 0.1 µM, first compound 0.0316 µM
[2] = second compound 0.1 µM, first compound 0.1 µM
[3] = second compound 0.316 µM, first compound 0.0316 µM
[4] = second compound 0.316 µM, first compound 0.1 µM
[5] = second compound 1 µM, first compound 0.0316 µM
[6] = second compound 1 µM, first compound 0.1 µM
[7] = second compound 3.16 µM, first compound 0.0316 µM
[8] = second compound 3.16 µM, first compound 0.1 µM
[9] = second compound 10 µM, first compound 0.0316 µM
[10] = second compound 10 µM, first compound 0.1 µM
[11] = second compound 0.1 µM, first compound 0.316 µM
[12] = second compound 0.1 µM, first compound 1 µM
[13] = second compound 0.1 µM, first compound 3.16 µM
[14] = second compound 0.1 µM, first compound 10 µM
[15] = second compound 0.316 µM, first compound 0.316 µM
[16] = second compound 0.316 µM, first compound 1 µM
[17] = second compound 0.316 µM, first compound 3.16 µM
[18] = second compound 0.316 µM, first compound 10 µM
[19] = second compound 1 µM, first compound 0.316 µM
[20] = second compound 1 µM, first compound 1 µM
[21] = second compound 1 µM, first compound 3.16 µM
[22] = second compound 1 µM, first compound 10 µM
[23] = second compound 3.16 µM, first compound 0.316 µM
[24] = second compound 3.16 µM, first compound 1 µM
[25] = second compound 3.16 µM, first compound 3.16 µM
[26] = second compound 3.16 µM, first compound 10 µM
[27] = second compound 10 µM, first compound 0.316 µM
[28] = second compound 10 µM, first compound 1 µM
[29] = second compound 10 µM, first compound 3.16 µM
[30] = second compound 10 µM, first compound 10 µM

Cn1ncnc1C1c2n[nH]c(=O)c3cc(F)cc(c23)NC1c1ccc(F)cc1 (stereo not given) + Cc1cncc(-c2nc(NCCc3c[nH]c4ccccc34)c3ncn(C(C)C)c3n2)c1
pIC50 (second compound 0.1 µM): < 7.00 | pIC50 (second compound 0.316 µM): < 7.00 | pIC50 (second compound 1 µM): < 7.00 | pIC50 (second compound 3.16 µM): < 7.00 | pIC50 (second compound 10 µM): < 7.00 | viability, T/C (second compound 0.1 µM, first compound 0.000316 µM): 111% | viability, T/C (second compound 0.1 µM, first compound 0.001 µM): 103% | viability, T/C (second compound 0.1 µM, first compound 0.00316 µM): 94.4% | viability, T/C (second compound 0.1 µM, first compound 0.01 µM): 119% | viability, T/C [1]: 110% | viability, T/C [2]: 107% | viability, T/C (second compound 0.316 µM, first compound 0.000316 µM): 96.2% | viability, T/C (second compound 0.316 µM, first compound 0.001 µM): 90.7% | viability, T/C (second compound 0.316 µM, first compound 0.00316 µM): 88.6% | viability, T/C (second compound 0.316 µM, first compound 0.01 µM): 98.2% | viability, T/C [3]: 77.4% | viability, T/C [4]: 91% | viability, T/C (second compound 1 µM, first compound 0.000316 µM): 91.8% | viability, T/C (second compound 1 µM, first compound 0.001 µM): 103% | viability, T/C (second compound 1 µM, first compound 0.00316 µM): 92.4% | viability, T/C (second compound 1 µM, first compound 0.01 µM): 95.8% | viability, T/C [5]: 94.7% | viability, T/C [6]: 83.3% | viability, T/C (second compound 3.16 µM, first compound 0.000316 µM): 103% | viability, T/C (second compound 3.16 µM, first compound 0.001 µM): 105% | viability, T/C (second compound 3.16 µM, first compound 0.00316 µM): 88.2% | viability, T/C (second compound 3.16 µM, first compound 0.01 µM): 92% | viability, T/C [7]: 98.6% | viability, T/C [8]: 94.7% | viability, T/C (second compound 10 µM, first compound 0.000316 µM): 44.9% | viability, T/C (second compound 10 µM, first compound 0.001 µM): 43.8% | viability, T/C (second compound 10 µM, first compound 0.00316 µM): 86.5% | viability, T/C (second compound 10 µM, first compound 0.01 µM): 53.5% | viability, T/C [9]: 61.3% | viability, T/C [10]: 40.7%

NS(=O)(=O)OCC1CC(n2ccc3c(NC4CCc5ccccc54)ncnc32)CC1O (stereo not given) + CC(CO)NC(=O)c1cc(-c2ccc(Cl)cc2)nn(-c2cnn(C)c2)c1=O
pIC50 (second compound 0.1 µM): 5.47 | pIC50 (second compound 0.316 µM): 5.54 | pIC50 (second compound 1 µM): 5.50 | pIC50 (second compound 3.16 µM): < 5.00 | pIC50 (second compound 10 µM): < 5.00 | viability, T/C [1]: 112% | viability, T/C [2]: 133% | viability, T/C [11]: 96.5% | viability, T/C [12]: 65.9% | viability, T/C [13]: 44.6% | viability, T/C [14]: 51.8% | viability, T/C [3]: 127% | viability, T/C [4]: 115% | viability, T/C [15]: 92.5% | viability, T/C [16]: 58.5% | viability, T/C [17]: 47.3% | viability, T/C [18]: 49.7% | viability, T/C [5]: 125% | viability, T/C [6]: 127% | viability, T/C [19]: 118% | viability, T/C [20]: 69.2% | viability, T/C [21]: 48.2% | viability, T/C [22]: 50.6% | viability, T/C [7]: 133% | viability, T/C [8]: 129% | viability, T/C [23]: 108% | viability, T/C [24]: 69.2% | viability, T/C [25]: 54% | viability, T/C [26]: 59.3% | viability, T/C [9]: 86.2% | viability, T/C [10]: 104% | viability, T/C [27]: 103% | viability, T/C [28]: 76% | viability, T/C [29]: 62.6% | viability, T/C [30]: 63.6%

CC(C)c1c(-c2ccccc2)nc2c(C#N)c[nH]n2c1=O + CC(CO)NC(=O)c1cc(-c2ccc(Cl)cc2)nn(-c2cnn(C)c2)c1=O
pIC50 (second compound 0.1 µM): < 5.00 | pIC50 (second compound 0.316 µM): < 5.00 | pIC50 (second compound 1 µM): < 5.00 | pIC50 (second compound 3.16 µM): < 5.00 | pIC50 (second compound 10 µM): < 5.00 | viability, T/C [1]: 88.4% | viability, T/C [2]: 101% | viability, T/C [11]: 106% | viability, T/C [12]: 90.9% | viability, T/C [13]: 95.7% | viability, T/C [14]: 121% | viability, T/C [3]: 88.7% | viability, T/C [4]: 85.3% | viability, T/C [15]: 91.4% | viability, T/C [16]: 98.1% | viability, T/C [17]: 93.8% | viability, T/C [18]: 108% | viability, T/C [5]: 78.7% | viability, T/C [6]: 89.9% | viability, T/C [19]: 86.4% | viability, T/C [20]: 78.7% | viability, T/C [21]: 107% | viability, T/C [22]: 94.8% | viability, T/C [7]: 95.7% | viability, T/C [8]: 97.8% | viability, T/C [23]: 80.1% | viability, T/C [24]: 78% | viability, T/C [25]: 82.8% | viability, T/C [26]: 76.8% | viability, T/C [9]: 71.8% | viability, T/C [10]: 80.8% | viability, T/C [27]: 67.8% | viability, T/C [28]: 71.3% | viability, T/C [29]: 62.9% | viability, T/C [30]: 77.8%
